From patent US20250114430A1, “MODIFIED PEPTIDOMIMETICS AND METHODS OF USE” (The University of North Carolina at Chapel Hill, priority 2021, published 2025)
“Also recorded” adds a separate entry of the source. No end group written: not given here.

Assays:
P. aeruginosa = assay: Murine model of P. aeruginosa bacterial pneumonia; assay type: in vivo, mice
Description: FIGS. 15A-15D show (FIG. 15A) a schematic of a murine model of P. aeruginosa (top left panel), and bar graphs of (FIG. 15B) BAL monocytes, (FIG. 15C) BAL neutrophils, and (FIG. 15D) bacterial counts in whole lung at 24 hours quantified following experiments according to the mouse model as schematized and conditions as noted on the x-axis.
FIGS. 16A-16G show data from further P. aeruginosa infection experiments. […] Increased inflammation is seen in infection as indicated in the alveolar/gas exchange regions of the lungs which show alveolar damage and thickening that prevent gas exchange. ELD607 treatment normalized alveoli histology similar to naïve lung conditions.
Mice were exposed to vehicle or P. aeruginosa±ELD607 and BAL was obtained and stained with an anti-Orai1 antibody, fluorescent 2° and DAPI. […] FIG. 16G panels B and C show plots showing fluorescence intensities of Orai1 in macrophages and neutrophils, respectively. ***p<0.001 different as indicated. ND=no detectable neutrophils in these groups.
Further in vivo experiments were performed. […] Bronchoalveolar lavage (BAL) and organ collection was performed 24 hours following treatment with peptide (FIG. 15A). […] Moreover, 24 h after infection, about 10^9 CFUs could be detected in murine whole lung homogenate. However, ELD607 caused an ˜5 log10 reduction in lung bacteria (FIG. 15D).
Mice were exposed to vehicle or P. aeruginosa±ELD607 and BAL was obtained and stained with an anti-Orai1 antibody, fluorescent 2° and DAPI. […] FIG. 16G panels B and C show plots showing fluorescent intensities of Orai1 in macrophages and neutrophils, respectively.
To examine Orai1 levels, BAL was then obtained from P. aeruginosa-infected mice, immediately cytospun, fixed in PFA and stained with an antibody against Orai1.

αSMA [1] = assay: TGFβ-induced myofibroblast differentiation of CCL-210 fibroblasts (αSMA); assay type: cell-based, human; details: CCL-210, 7 days 10 ng/mL TGFβ, then ELD607 for 48 hours
Description: FIG. 36A-36C show ELD607 reduces TGFβ-induced myofibroblast formation. FIG. 36A is a schematic showing fibroblast to myofibroblast formation and αSMA deposition. […] Data are mean data from Western blots in normal fibroblasts.
In vitro Methods: Fibroblasts were exposed to 10 nM TFGβ for 3-7 days as indicated. […] Fibroblasts were then fixed in paraformaldehyde, stained with primary a smooth muscle actin (αSMA) antibody, and imaged by confocal microscopy. Myofibroblasts were exposed to ELD607 without any TGFβ pre-treatment. In some cases, Western blotting was used to probe for αSMA.
ELD607 reverses myofibroblast differentiation. Increased alpha smooth muscle actin (αSMA) deposition is a hallmark of damaged IPF lungs, and is a common marker for identifying when fibroblasts turn into myofibroblasts—key drivers of fibrosis, and it is generally considered that less αSMA is beneficial (FIG. 36A). It was then determined whether ELD607 alters myofibroblast formation. The human lung fibroblast cell line CCL-210 was treated for 7 days with 10 ng/mL TGFβ to induce myofibroblast differentiation.

[2] = target: T1, human neutrophil elastase (Homo sapiens, UniProt P08246); assay type: in vitro ADME
T1 sequence (P08246 30-267): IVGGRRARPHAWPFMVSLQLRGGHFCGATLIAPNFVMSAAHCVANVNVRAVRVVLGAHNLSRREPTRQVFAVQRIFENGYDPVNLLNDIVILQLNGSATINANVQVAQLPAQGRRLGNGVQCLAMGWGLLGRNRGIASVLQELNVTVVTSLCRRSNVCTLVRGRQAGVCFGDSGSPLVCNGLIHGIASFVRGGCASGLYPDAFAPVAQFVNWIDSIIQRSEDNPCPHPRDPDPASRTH
Description: Peptides were exposed to NE over time, and the reaction was stopped by addition of sivelestat. HPLC was then performed in order to determine peptide stability. N=3-4 replicates per time point.
HEK293T cells were plated and incubated for 2 hours with Fluo-4 plus or minus ELD peptides, with fluorescent images taken every 30 seconds for 2-6 minutes at excitation/emission wavelengths of 488/530 nm. […] Candidate peptides ELD604, 607, 601, and 100 were tested for resistance against protease degradation, wherein the peptides were incubated with neutrophil elastase, treated with the elastase inhibitor sivelestat at various timepoints to halt ongoing reactions, and then analyzed by HPLC (FIG. 9).
Endogenous Orai1/store operated Ca^2+ influx have been extensively studied in HEK293T cells, so this cell type was used to understand ELD607-Orai1 interactions. […] Thapsigargin is a SERCA pump inhibitor that prevents uptake of cytosolic Ca^2+ into the endoplasmic reticulum. Thapsigargin is commonly used to stimulate Orai1/store operated Ca^2+ influx. […] Dynamic light scattering (DLS) was used to evaluate binding of ELD607 to peptides of Orai1 extracellular loops. […] Thus, it was concluded that ELD607 interacts with Orai1.

E. coli LPS = E. coli LPS sepsis model, intravenous ELD607; assay type: in vivo, mice; details: LPS intraperitoneally
Description: We injected mice intraperitoneally with E. coli LPS, followed by 0.5 mg/kg ELD607 injected intravenously 1 h later.

αSMA [3] = assay: αSMA deposition in primary myofibroblasts from IPF patients; assay type: cell-based, human; details: primary myofibroblasts from five IPF patients
Description: Each pair of point represents paired data from 5 different IPF donors.
In vitro Methods: Fibroblasts were exposed to 10 nM TFGβ for 3-7 days as indicated. Then, ELD607 was added overnight. Fibroblasts were then fixed in paraformaldehyde, stained with primary a smooth muscle actin (αSMA) antibody, and imaged by confocal microscopy. Myofibroblasts were exposed to ELD607 without any TGFβ pre-treatment. In some cases, Western blotting was used to probe for αSMA.

[4] = 10^7 CFU, 0.51 mg/kg intranasal

VHDIVNMLIRG [ELD607, VHDIVNMLIRG]
BAL monocytes (P. aeruginosa; 10^7 CFU intratracheally, 0.51 mg/kg peptide intranasal 1 hour later, 24 hours): significantly retained monocyte levels
BAL lactate dehydrogenase (LDH) (P. aeruginosa; [4]): significantly reduced
BAL neutrophil elastase (P. aeruginosa; [4]): significantly reduced
BAL total protein (P. aeruginosa; [4]): significantly reduced
BAL neutrophils (P. aeruginosa; 10^7 CFU, 0.51 mg/kg intranasal, 24 hours): reduced neutrophil levels
survival (P. aeruginosa; 10^9 CFU/ml P. aeruginosa, 48 hours post-infection): significantly improved survival
bacterial counts in the spleen (P. aeruginosa; 24 hours post ELD607 treatment): reduced bacterial counts in the spleen
BAL neutrophils, delayed treatment (P. aeruginosa; ELD607 added 24 hours after infection): reduced
BAL Macrophage Inflammatory Protein 2 (MIP-2) (P. aeruginosa; P. aeruginosa infected mice): reduced
BAL interleukin-17 (IL-17) (P. aeruginosa; P. aeruginosa infected mice): reduced
BAL keratinocytes-derived chemokine (KC) (P. aeruginosa; P. aeruginosa infected mice): reduced
IL-6 (P. aeruginosa; P. aeruginosa infected mice): reduced
interleukin-1β (IL-1β) (P. aeruginosa; P. aeruginosa infected mice): reduced
lung histology (P. aeruginosa; P. aeruginosa infected mice): normalization of alveoli
tumor necrosis factor-α (TNF-α) (P. aeruginosa; P. aeruginosa infected mice): reduced
weight loss (P. aeruginosa; intranasal 10^7 CFU/ml P. aeruginosa, 24 hours): prevented the total weight loss
Orai1 levels in BAL cells (anti-Orai1 staining) (P. aeruginosa; naïve and P. aeruginosa-infected mice): reduces Orai1 in murine BAL macrophages; also recorded: significant decrease in Orai1 levels
reduction in lung bacteria (P. aeruginosa; whole lung homogenate, 24 h after infection): ~5 log10
αSMA levels (western blot and immunofluorescence) (αSMA [1]): significantly reduced
stability against neutrophil elastase [2]: significant increase in stability
stability relative to a6 after exposure to human neutrophil elastase [2]: four times more stable
blood macrophages (E. coli LPS; 0.5 mg/kg intravenously): significantly increased blood macrophages
blood neutrophilia (E. coli LPS; 0.5 mg/kg intravenously): significantly reduced blood neutrophilia
weight loss (E. coli LPS; 0.5 mg/kg intravenously 1 h later): significant prevented weight loss
αSMA deposition (αSMA [3]): significantly reduces αSMA deposition
